Experiment [1] can be described thus: A Cell Based Secondary Assay To Explore Cytotoxicity of Compounds that Sensitize Mycobacterium Tuberculosis to Beta-Lactam Antibiotics. Format: functional.
In experiment [2] the target is T1, Heat shock factor protein 1 (Mus musculus, UniProt P38532).
T1 sequence (P38532 whole entry): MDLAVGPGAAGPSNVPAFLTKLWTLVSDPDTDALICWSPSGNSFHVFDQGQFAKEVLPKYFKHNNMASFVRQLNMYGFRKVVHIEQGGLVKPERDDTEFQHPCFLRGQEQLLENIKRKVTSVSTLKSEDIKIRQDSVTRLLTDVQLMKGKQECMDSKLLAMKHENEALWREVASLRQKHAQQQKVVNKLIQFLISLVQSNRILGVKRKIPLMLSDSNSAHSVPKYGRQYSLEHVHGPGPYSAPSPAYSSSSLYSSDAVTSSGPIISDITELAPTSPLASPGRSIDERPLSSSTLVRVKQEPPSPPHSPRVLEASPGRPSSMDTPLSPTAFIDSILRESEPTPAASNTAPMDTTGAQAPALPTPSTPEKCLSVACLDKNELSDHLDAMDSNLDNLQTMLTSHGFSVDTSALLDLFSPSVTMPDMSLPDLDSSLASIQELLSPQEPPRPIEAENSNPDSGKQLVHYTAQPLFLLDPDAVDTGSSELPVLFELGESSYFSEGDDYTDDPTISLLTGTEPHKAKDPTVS
The experiment in a line: decrease of HSF1-responsive luciferase luminescence – cell-based, NIH3T3, dose retest, confirmation (AID 2382).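 Also: NIH3T3 fibroblasts with HSF1-driven luciferase reporter stressed by proteasome inhibitor MG132; luminescence from HSF1-driven luciferase expression after 8 hours of MG132 stress.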 The experiment is classed as functional.

Experiment [3] in a line: HEK-293T viability loss after treatment – luminescence, T-cell screen hits, cytotoxicity control for TCR NF-kB inhibitor project, dose response (AID 489026).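 Also: cells exposed to compound about 14 hours before the viability readout.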 Format: functional, cell-based.
The next experiment deals with INS1. The experiment in a line: INS-1E survival protection against cytokine death – cell-based, luminescence, retest, dose response (AID 449756).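 Also: cell death triggered by IL-1 beta plus TNF-alpha plus IFN-gamma mixture; protective hits raise ATP signal compared with cytokine alone wells.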 Format: functional. The following applies: Rattus norvegicus.
Experiment [4] in a line: reduction of Shn3 3'UTR-driven luciferase in osteoblasts – cell-based, Clone20 osteoblasts, firefly luciferase, cherry-picked, dose response (AID 624132).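 Also: firefly luciferase luminescence from reporter carrying the Shn3 3'UTR in osteoblasts.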 The experiment is classed as functional.
Experiment [5] can be described thus: loss of viability in HepG2 cells – cell-based, CellTiter-Glo, cherry-picked, cytotoxicity control for Shn3 inhibitor project, dose response (AID 624134). The experiment is classed as functional. (In ATP-based viability assays light output follows the ATP content of the culture.)
Experiment [6] in a line: non-specific 3'UTR reporter inhibition in Clone20-Shn3RL – cell-based, Renilla luciferase, cherry-picked, counter-screen for Shn3 inhibitor project, dose response (AID 624133). Format: functional. (In general: The purpose of a counterscreen is to sort out artefacts and off-target activity.)
The nature of experiment [7]: A cytotoxicity screen of small molecule inhibitors of the PhoP region in Salmonella typhi identified in the primary screen. [Related pubchem assays: 1850, 1864, 1985 ]. The experiment is classed as functional.
For a further experiment, the target named is T2, Coagulation factor XII (Homo sapiens, UniProt P00748).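 Also: activated factor XIIa alpha cleaving a fluorogenic AMC peptide substrate; inhibitor potency from loss of enzyme activity.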
T2 sequence (P00748 whole entry): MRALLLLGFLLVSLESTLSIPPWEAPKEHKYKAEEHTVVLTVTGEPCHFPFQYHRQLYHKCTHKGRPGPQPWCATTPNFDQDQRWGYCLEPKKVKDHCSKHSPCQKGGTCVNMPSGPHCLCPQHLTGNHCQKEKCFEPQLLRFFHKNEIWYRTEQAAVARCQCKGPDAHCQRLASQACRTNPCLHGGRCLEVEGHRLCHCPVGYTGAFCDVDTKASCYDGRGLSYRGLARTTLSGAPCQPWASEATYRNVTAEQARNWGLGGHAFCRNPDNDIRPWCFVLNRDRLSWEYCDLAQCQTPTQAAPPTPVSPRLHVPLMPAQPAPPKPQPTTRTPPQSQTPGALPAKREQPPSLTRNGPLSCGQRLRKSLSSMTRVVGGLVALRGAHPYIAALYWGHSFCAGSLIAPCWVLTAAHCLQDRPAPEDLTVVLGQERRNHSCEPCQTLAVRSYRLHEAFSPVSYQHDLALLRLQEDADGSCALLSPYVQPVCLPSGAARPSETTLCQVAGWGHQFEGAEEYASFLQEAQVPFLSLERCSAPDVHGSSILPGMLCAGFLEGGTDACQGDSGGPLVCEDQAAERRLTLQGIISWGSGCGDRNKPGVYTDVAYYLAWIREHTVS
Format: functional.

Another experiment has as its target Prothrombin (Homo sapiens, UniProt P00734). The experiment in a line: Thrombin 1536 HTS Dose Response Confirmation. [Related pubchem assays: 1046 (Thrombin 1536 HTS; hits were confirmed in this assay)]. The experiment is classed as functional.
The nature of experiment [8]: viability of HCT116 lacking mutant beta-catenin – cell-based, human colon tumor, dose response (AID 1045).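 Also: HCT116 colon tumor cells with beta catenin knocked out; cells exposed to compound for 60 hours.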 Format: functional.
Experiment [9] concerns the target T3, SUMO-activating enzyme (Homo sapiens, UniProt Q9UBT2). Put plainly: blockers of UBC9-mediated SUMO conjugation – biochemical, AlphaScreen, SUMOylation inhibitor project, confirmation (AID 2018). Format: functional.
Experiment [10] has as its target T3, SUMO-activating enzyme. Put plainly: blockers of SAE1/SAE2–UBC9 SUMO transfer – biochemical, HTRF, uHTS, primary screen (AID 2006). Format: protein-complex assay. (In TR-FRET formats the signal depends on donor and acceptor labels being close together.)
The target of another experiment is T4, Exodeoxyribonuclease V (Escherichia coli (strain K12), UniProt P04993+P07648+P08394).
T4 sequence (P04993 whole entry): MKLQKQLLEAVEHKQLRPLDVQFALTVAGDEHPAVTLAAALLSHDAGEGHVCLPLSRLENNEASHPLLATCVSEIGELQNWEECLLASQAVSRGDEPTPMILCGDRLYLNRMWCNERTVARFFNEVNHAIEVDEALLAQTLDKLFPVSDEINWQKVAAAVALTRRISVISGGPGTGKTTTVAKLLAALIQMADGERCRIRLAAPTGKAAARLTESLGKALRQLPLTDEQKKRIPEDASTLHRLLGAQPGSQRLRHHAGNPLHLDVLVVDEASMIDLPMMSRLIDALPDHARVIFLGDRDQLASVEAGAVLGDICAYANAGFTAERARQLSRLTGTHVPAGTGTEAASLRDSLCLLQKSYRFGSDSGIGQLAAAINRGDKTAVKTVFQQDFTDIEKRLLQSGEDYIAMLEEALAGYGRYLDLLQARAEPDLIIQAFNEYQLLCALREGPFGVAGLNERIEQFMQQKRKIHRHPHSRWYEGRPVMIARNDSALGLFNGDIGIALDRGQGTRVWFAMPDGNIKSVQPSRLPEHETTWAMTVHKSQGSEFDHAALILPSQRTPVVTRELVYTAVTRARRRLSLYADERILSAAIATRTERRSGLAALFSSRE
T4 sequence (P07648 whole entry): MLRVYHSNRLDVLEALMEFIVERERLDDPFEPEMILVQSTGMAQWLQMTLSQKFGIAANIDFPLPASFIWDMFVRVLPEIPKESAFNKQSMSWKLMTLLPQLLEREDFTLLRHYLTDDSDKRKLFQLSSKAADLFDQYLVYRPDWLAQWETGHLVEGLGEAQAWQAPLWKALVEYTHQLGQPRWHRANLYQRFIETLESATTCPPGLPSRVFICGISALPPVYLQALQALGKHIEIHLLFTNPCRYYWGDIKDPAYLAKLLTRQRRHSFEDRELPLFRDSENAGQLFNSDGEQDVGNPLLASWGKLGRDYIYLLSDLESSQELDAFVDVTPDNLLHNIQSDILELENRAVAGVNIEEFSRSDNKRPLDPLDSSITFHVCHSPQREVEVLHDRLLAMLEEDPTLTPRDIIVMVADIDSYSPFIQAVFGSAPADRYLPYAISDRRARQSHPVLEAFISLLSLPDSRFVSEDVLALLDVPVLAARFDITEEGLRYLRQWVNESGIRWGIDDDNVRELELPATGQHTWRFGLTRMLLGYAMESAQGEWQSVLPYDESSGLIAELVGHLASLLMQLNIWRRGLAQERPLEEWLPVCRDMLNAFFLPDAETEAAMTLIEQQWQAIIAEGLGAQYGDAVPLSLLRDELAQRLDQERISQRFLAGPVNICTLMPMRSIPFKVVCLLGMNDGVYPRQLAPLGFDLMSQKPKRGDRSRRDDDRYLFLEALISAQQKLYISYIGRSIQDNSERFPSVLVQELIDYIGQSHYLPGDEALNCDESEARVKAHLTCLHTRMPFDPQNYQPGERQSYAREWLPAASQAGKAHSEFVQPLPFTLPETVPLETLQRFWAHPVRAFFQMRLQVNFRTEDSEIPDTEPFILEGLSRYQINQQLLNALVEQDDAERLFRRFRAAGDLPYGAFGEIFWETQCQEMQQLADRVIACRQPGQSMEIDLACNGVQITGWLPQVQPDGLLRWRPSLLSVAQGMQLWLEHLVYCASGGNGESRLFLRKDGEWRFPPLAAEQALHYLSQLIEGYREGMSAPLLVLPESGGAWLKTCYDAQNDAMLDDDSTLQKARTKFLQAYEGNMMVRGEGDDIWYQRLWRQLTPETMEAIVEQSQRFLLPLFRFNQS
T4 sequence (P08394 whole entry): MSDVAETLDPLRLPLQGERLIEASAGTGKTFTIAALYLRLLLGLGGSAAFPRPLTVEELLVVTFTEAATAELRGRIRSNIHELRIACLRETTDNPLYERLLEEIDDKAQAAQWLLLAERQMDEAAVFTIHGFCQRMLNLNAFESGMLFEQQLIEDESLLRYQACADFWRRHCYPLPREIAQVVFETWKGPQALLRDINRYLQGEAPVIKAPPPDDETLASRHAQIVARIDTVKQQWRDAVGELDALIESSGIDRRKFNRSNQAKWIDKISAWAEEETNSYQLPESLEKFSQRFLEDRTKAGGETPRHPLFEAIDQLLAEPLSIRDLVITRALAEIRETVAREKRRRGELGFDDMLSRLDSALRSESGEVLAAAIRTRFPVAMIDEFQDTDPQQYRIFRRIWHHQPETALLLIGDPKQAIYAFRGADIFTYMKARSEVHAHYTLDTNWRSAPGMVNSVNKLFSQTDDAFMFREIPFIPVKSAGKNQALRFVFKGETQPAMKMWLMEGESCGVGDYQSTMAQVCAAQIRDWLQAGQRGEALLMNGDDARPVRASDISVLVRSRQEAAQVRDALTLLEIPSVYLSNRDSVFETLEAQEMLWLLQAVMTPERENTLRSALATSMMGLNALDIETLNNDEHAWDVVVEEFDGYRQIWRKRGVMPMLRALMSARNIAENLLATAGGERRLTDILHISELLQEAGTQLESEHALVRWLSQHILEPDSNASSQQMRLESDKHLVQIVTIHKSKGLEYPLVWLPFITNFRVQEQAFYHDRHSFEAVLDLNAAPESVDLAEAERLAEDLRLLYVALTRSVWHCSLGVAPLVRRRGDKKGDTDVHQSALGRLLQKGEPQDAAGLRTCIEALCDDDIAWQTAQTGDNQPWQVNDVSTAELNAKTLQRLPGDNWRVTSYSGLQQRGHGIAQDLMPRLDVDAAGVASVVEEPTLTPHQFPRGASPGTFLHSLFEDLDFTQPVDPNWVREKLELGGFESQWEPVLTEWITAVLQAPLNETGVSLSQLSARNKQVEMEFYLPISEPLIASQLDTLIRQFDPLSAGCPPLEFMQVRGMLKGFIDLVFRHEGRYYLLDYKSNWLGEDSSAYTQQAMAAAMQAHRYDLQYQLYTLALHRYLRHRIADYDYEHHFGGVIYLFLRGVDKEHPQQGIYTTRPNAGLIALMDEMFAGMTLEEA
Put plainly: RecBCD inhibition via phage-restricted bacterial growth – absorbance, V66 E. coli, mutant T4 phage, counter-screen for AddAB inhibitor project, dose response (AID 492957). The experiment is classed as functional, cell-based, Escherichia coli str. K-12 substr. MG1655.

The nature of experiment [11]: Counterscreen for AddAB inhibitors: absorbance-based bacterial cell-based high throughput dose response assay for inhibitors of bacterial viability. [Related pubchem assays (depositor defined):AID435030, AID449728, AID449731, AID488942, AID488955, AID488956]. The experiment is classed as functional.
For another experiment, the target named is Albumin (Bos taurus, UniProt P02769). Put plainly: Counterscreen for inhibitors of T-cell receptor (TCR)-CD3 interaction: Fluorescence-based biochemical high throughput dose response assay to identify inhibitors of T-cell receptor (TCR)-CD3 interaction using a TAMRA-labeled BSA probe. The experiment is classed as functional.

Nine compounds from ChEMBL document CHEMBL1201862, “PubChem BioAssay data set” (2004) can be followed below.

The source made the active and inactive calls. Where only a bound is given, the exact number is not on record here.

T3 sequence (Q9UBE0 whole entry): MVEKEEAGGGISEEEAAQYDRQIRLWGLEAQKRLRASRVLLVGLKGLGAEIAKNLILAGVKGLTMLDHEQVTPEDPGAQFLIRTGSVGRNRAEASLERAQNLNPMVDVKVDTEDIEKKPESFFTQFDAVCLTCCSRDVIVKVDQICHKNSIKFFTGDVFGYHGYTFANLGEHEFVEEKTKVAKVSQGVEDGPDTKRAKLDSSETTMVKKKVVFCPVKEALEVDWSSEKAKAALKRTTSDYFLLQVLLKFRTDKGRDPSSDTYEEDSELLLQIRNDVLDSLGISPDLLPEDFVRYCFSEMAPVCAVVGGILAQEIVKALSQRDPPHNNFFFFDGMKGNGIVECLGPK
T3 sequence (Q9UBT2 whole entry): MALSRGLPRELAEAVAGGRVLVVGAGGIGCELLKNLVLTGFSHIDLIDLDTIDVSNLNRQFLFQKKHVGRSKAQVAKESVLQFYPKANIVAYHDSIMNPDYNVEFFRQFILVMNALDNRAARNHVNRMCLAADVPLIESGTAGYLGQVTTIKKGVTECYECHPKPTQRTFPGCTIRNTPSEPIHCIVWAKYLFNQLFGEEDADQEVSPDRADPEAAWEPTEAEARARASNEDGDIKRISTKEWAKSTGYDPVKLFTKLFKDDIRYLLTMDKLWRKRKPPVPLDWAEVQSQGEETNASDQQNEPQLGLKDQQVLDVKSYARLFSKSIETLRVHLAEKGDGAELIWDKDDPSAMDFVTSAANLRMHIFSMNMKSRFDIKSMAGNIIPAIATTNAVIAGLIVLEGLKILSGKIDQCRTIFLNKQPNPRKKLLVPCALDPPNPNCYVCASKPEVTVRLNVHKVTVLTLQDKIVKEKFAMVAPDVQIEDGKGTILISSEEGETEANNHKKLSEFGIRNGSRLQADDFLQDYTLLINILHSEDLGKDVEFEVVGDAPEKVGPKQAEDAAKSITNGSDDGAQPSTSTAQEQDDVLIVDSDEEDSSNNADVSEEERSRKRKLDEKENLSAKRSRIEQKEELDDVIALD
Chain of Albumin (P02769 whole entry): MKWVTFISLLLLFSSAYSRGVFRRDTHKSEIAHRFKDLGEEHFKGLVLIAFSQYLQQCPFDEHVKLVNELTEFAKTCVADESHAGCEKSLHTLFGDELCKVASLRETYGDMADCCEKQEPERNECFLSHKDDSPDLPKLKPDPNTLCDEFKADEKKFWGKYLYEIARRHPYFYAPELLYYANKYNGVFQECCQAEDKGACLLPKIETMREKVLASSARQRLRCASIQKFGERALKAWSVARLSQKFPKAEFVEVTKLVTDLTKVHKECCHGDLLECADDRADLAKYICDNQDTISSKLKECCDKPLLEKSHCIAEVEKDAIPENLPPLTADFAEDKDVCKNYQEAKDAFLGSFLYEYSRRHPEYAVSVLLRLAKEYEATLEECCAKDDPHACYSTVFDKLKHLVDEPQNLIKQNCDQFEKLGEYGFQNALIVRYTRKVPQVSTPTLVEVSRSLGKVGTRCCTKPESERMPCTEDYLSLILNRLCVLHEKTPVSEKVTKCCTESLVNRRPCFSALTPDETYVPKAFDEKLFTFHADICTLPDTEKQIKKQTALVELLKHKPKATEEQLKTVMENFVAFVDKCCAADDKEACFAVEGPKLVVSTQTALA

By CC50 is commonly meant the concentration giving 50% cytotoxicity. What is called EC50 is the concentration at which the effect is half-maximal. One may read the IC50 as the concentration that inhibits the measured activity by half. What is called AC50 is the concentration at which the activity in the assay is half-maximal. For the compound `C=C(C)C(=O)O[C@H]1C/C(C)=C\C(=O)/C=C(\C)[C@H](O)[C@@H]2OC(=O)C(=C)[C@@H]21`, the CC50 in experiment [1] was 3.71 µM (active). Besides, in [2], the concentration for a half-maximal effect (EC50) was 8.1 µM (active). For the same compound, the IC50 in experiment [3] is > 80 µM (inactive). The concentration at half-maximal activity (AC50) in the experiment with INS1 was 8.02 µM (active); in [4], 3.02 µM (active); in experiment [5], 6.81 µM (active); in experiment [6] it was 11.1 µM (active).
With `COC(=O)Cn1c(=O)c(C)nc2ccccc21`, the concentration for a half-maximal effect (EC50) in experiment [7] was > 50 µM (active).
Consider `COCc1n[nH]c2c1C(c1c(F)cccc1Cl)C(C#N)=C(N)O2` (stereo unspecified), for which the concentration giving a half-maximal response (EC50) in experiment [7] was > 50 µM (active).
Turning to `Cc1c(NC(=O)CSc2nc3ccccc3s2)c(=O)n(-c2ccccc2)n1C`, on Coagulation factor XII, the IC50 is > 50 µM (inactive).
For the compound `CN(C)C(=O)CSc1nnc([C@@H](N)Cc2ccccc2)o1`, the concentration for half-maximal inhibition (IC50) against Prothrombin is > 50 µM (not active); at Coagulation factor XII it was > 50 µM (inactive).
On to `CCOC(=O)c1cc2sccc2n1CC(=O)N1c2ccccc2CC1C` (stereo unspecified), for which the EC50 in experiment [8] was 445 µM (active). For the same compound, the IC50 at Coagulation factor XII was > 50 µM (inactive).
For `COc1ccc(-c2csc(NC(C)c3nc4cc(Cl)c(Cl)cc4n3CCCO)n2)cc1` (stereo unspecified), the half-maximal cytotoxic concentration (CC50) in experiment [1] was 15.4 µM (active).
As for `CN(Cc1ccccc1O)CC1CCCN(CCc2ccc(Cl)cc2)C1` (stereo unspecified), the EC50 in [7] is > 50 µM (active).
With `COc1cccc(/C=C2/SC(=S)N(CC(=O)NNC(=O)c3ccccc3O)C2=O)c1`, the IC50 was 29.4 µM (active) on SUMO-activating enzyme [9]; 11.8 µM (active) on SUMO-activating enzyme [10]; > 119 µM (inactive) at Exodeoxyribonuclease V; > 119 µM (inactive) in experiment [11]; > 94.1 µM (inactive) at Albumin.
